The values that follow come from PubChem BioAssay AID540271 (Broad Institute, 2011).

The subject of this experiment is S. cerevisiae expressing PfHSP40, growth rescue, plate reader. Briefly: S cerevisiae expressing PfHSP40, growth rescue, cherry pick dose confirmatory, plate reader (AID 540271).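 Note: yeast growth read after three days of incubation at 30 °C.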
For the compound `O/N=C(\c1ccc(Cl)cc1Cl)c1ncc(C(F)(F)F)cc1Cl`, the AC50 was 9.27 µM.
On to `Cc1cc(C)c2sc(NNC(=O)c3ccc(S(=O)(=O)N4CCc5ccccc5C4)cc3)nc2c1`, for which the AC50 is 1.48 µM.
As for `O=C(O)c1ccccc1NC(c1ccccc1)c1ccc2cccnc2c1O` (centres undefined), the AC50 was 2.19 µM.
`O=C(N/N=C/c1cc(Br)ccc1O)c1ccccc1Cl`: the half-maximal activity concentration (AC50) was 4.83 µM.
In the case of `S=C(NCCCc1ccccc1)Nc1ccccc1Cl`, the AC50 is 9.44 µM.
For `COC(=O)COC(=O)c1ccccc1NC(=O)c1ccccc1` the value was 3.13 µM.
As to `COc1ccc(-c2csc(NC(=O)c3ccccc3F)c2C(=O)O)cc1`, the concentration at half-maximal activity (AC50) is 3.69 µM.
As for `COc1ccc2c(c1)OC[C@H]1[C@H]2N2C(=O)c3cc(OC)ccc3NC(=O)[C@@]2(C)[C@H]1c1ccccc1`, the AC50 is 4.84 µM.
On to `CC(CNC(=O)COc1ccccc1)OC(=O)Nc1ccc(Cl)c(Cl)c1` (centres undefined), for which the AC50 is 6.12 µM.
On to `O=C(NCC1CC1(Cl)Cl)Nc1ccc(Cl)c(Cl)c1` (centres undefined), for which the AC50 was 5.73 µM.
For `COc1cc2c(c(OC)c1OC)-c1ccc(O)c(=O)cc1[C@@H](NC(C)=O)CC2`, the AC50 is 1.87 µM.
For `O=[N+]([O-])c1cc(C(F)(F)F)ccc1NCCc1c[nH]c2ccc(O)cc12` the value was 4.85 µM; for `C[C@H](O)[C@H]1CC[C@H]2[C@@H]3CCC4=CC(=O)CC[C@]4(C)[C@H]3CC[C@]12C`, 6.85 µM; for `CCCOc1ccc(S(=O)(=O)n2cc(F)c(=O)[nH]c2=O)cc1`, 3.66 µM.
Take `O=C(O)c1c(NC(=O)N2CCCC2)sc2c1CCCC2`: the AC50 was 3.42 µM.
As to `Cc1cccc(C)c1N1C(=O)C2ON(c3ccccc3)C(c3ccncc3)C2C1=O` (centres undefined), the AC50 was 6.34 µM.
Regarding `Cc1nc2ccc(C(=O)NCc3ccc4c(c3)OCO4)cc2s1`, the AC50 is 4.51 µM.
As for `CC(=O)NC(c1ccc(C)cc1)c1cc([N+](=O)[O-])c2cccnc2c1O` (centres undefined), the AC50 is 8.83 µM.
For `Clc1cccc(N/N=C(\Cc2nc3ccccc3[nH]2)c2ccccc2)c1`, the AC50 is 9.04 µM.
`CCCCNc1c(-c2ccc(-c3ccc(OC)cc3)c(OC)c2)nc2ccccn12`: the AC50 is 5.48 µM.
As for `Nc1nonc1C(=O)NCCN=Cc1cc(Cc2ccccc2)cc(Br)c1O`, the concentration at half-maximal activity (AC50) was 0.642 µM.
Take `O=[N+]([O-])c1cccc(-c2cc(-c3cc(Br)ccc3O)[nH]n2)c1`: the concentration at half-maximal activity (AC50) is 5.44 µM.
For `CC(=O)NC(c1cccc([N+](=O)[O-])c1)c1ccc2cccnc2c1O` (centres undefined) the value was 3.95 µM.
The figure for `c1ccc(Cn2cc(-c3cccnc3)cn2)cc1` is 1.62 µM; for `CC(C)NC(=O)NC(=O)COC(=O)c1ccc([N+](=O)[O-])cc1Cl` it is 12 µM.
Regarding `N#C/C(=C\Nc1ccccc1O)c1nc2ccccc2o1`, the concentration at half-maximal activity (AC50) was 9.96 µM.
For `O=C(O)c1ccccc1NS(=O)(=O)c1cccc(-n2sc3ccccc3c2=O)c1`, the AC50 was 4.78 µM.
As to `CCOC(=O)c1c(C)oc2c1C(=O)c1ccccc1C2=O`, the AC50 was 6.76 µM.
As for `Oc1ccc(-c2nc3ccccc3s2)c(O)c1`, the concentration at half-maximal activity (AC50) is 7.43 µM.
Consider `Nc1cc2nc3ccccc3oc-2cc1=O`, for which the half-maximal activity concentration (AC50) was 1.52 µM.
As for `Cc1ccc([C@@H]2CC=C(C(=O)O)[C@H](c3ccc(Br)cc3)N2S(=O)(=O)c2ccccc2C)cc1`, the AC50 was 5.21 µM.
As for `COc1ccc(N=N/C(=C\O)C(=O)c2cccs2)cc1`, the AC50 was 7.25 µM.
The figure for `COc1ccc2c(c1)S/C(=C\C(=O)c1ccncc1)N2C` is 5.21 µM; for `Cc1csc(NC(=O)C(C)Oc2ccc(Cl)cc2C)n1` (centres undefined) it is 8.4 µM.
As to `Cc1nc2ccc(C(C(F)(F)F)(C(F)(F)F)C(F)(F)F)cc2[nH]1`, the AC50 is 3.2 µM.
In the case of `O=[N+]([O-])c1ccc(-c2nc(-c3cccs3)c(-c3cccs3)[nH]2)cc1`, the AC50 is 4.2 µM.
The figure for `O=C(COc1ccccc1F)Nc1nc(-c2ccccn2)cs1` is 5.52 µM; for `O=c1cc(CSc2ccc(Cl)cc2)nc(-c2ccccn2)[nH]1` it is 4.13 µM.
In the case of `CCCSC(=S)c1c(C)[nH]n(-c2ccccc2)c1=O`, the half-maximal activity concentration (AC50) is 5.46 µM.
The figure for `Cc1ccc(NC(=O)CN(C)C(=O)c2cccnc2Nc2cccc(C(F)(F)F)c2)cc1` is 4.74 µM; for `COc1ccc(S(=O)(=O)N(C(=O)c2ccncc2)c2ccc(OC(=O)c3ccncc3)cc2)cc1` it is 4.46 µM.
For the compound `Cc1ccc(Sc2cc(C)nc(-c3ccccn3)n2)cc1`, the AC50 was 3.51 µM.
Take `Cc1nn(CCC#N)c(N)c1C1(O)C(=O)Nc2c(Cl)cc(Cl)cc21` (centres undefined): the AC50 is 7.66 µM.
Turning to `CC12CCC(O)CC1=CCC1C2CCC2(C)C3=NN=CC3CC12` (centres undefined), the half-maximal activity concentration (AC50) was 11.4 µM.
`COc1cccc(/C=N/NC(=O)c2nc(-c3ccccc3)cc(-c3ccccc3)n2)c1O`: the AC50 was 3.51 µM.
As for `CC1CCc2c(C(=O)Nc3ccccn3)csc2C1` (centres undefined), the concentration at half-maximal activity (AC50) is 9.29 µM.
For `Clc1ccc(C2=NCCN2)cc1` the value was 2.38 µM.
For the compound `Cc1ccccc1Oc1nc(-c2ccccn2)nc2ccccc12`, the AC50 is 2.29 µM.
Consider `C=CCN(CC=C)C(=S)NC(=O)c1ccc(C)c(Br)c1`, for which the AC50 is 6.72 µM.
Regarding `O=C(c1ccccc1)c1ccc(Cn2cc(-c3ccccc3)nn2)cc1`, the AC50 was 4.34 µM.
For `O=c1[nH]cc(F)c(=O)[nH]1` the value was 0.562 µM; for `Cc1ccc(-n2nnnc2C(Cl)c2nnnn2-c2ccc(C)cc2)cc1`, 3.4 µM.
With `CCOC(=O)N1C(=O)C2(CCCCC2)N(c2ccccc2Cl)C1=S`, the AC50 is 0.084 µM.
As to `CC(C)(C)n1nc(Cc2cccc3ccccc23)c2c(N)ncnc21`, the AC50 is 5.46 µM.
Consider `O=C(c1ccc(-c2ccccc2)cc1)C1CCCN(C(=O)c2cncs2)C1` (centres undefined), for which the AC50 was 5.93 µM.
`CC(C)=CCc1c(O)ccc(C(=O)Cc2ccccc2)c1O`: the AC50 is 10.8 µM.
Turning to `Cc1cc(C)c(C(=O)CC(=O)c2cccnc2)c(C)c1`, the AC50 was 2.06 µM.
Take `Oc1ccccc1-c1nnc(SCCN2CCOCC2)n1Cc1ccccc1`: the AC50 was 5.94 µM.
With `O=C(NCCC1=CCCCC1)c1c(O)nc2sccn2c1=O`, the AC50 was 3.82 µM.
For `Cc1cc([N+](=O)[O-])c(NC2CCCCC2)c([N+](=O)[O-])c1` the value was 9.82 µM; for `COc1ccc(O)c(C(=O)CC(=O)c2ccccc2C)c1`, 6.31 µM; for `COc1ccc(CNc2ncnc3sccc23)cc1`, 4.38 µM.
For `C(=N\Nc1nncc2ccccc12)/c1ccccn1` the value was 4.74 µM; for `CCCCCCN1N=C(C)C(C(=O)c2ccc(Cl)cc2)C1=O` (centres undefined), 3.23 µM.
On to `CCc1sc(C(=O)Nc2nc(-c3ccccn3)cs2)cc1C`, for which the AC50 is 1.82 µM.
As to `CCc1ccc(NC(=O)CSc2ccc(-c3ccccn3)nn2)cc1`, the AC50 was 2.44 µM.
For `CCc1cc(SC#N)cc(C)c1NC(=O)CCl` the value was 4.4 µM; for `O=C(NC(=S)N(CCc1ccccc1)CCc1ccccc1)c1ccco1`, 5.34 µM; for `CNc1cc(CSC)nc(SCc2ccc(Cl)cc2Cl)n1`, 4.18 µM.
Take `C=C1C(=O)C23CCC4C(C)(C(=O)OC)CCCC4(C)C2CCC1(O)C3` (centres undefined): the AC50 is 11.6 µM.
In the case of `O/N=C(\c1ccc(Cl)cc1)c1cc2ccccc2o1`, the AC50 is 5.38 µM.
On to `S=C(Nc1ccc(Oc2ccccc2)cc1)NC1CCCCCC1`, for which the half-maximal activity concentration (AC50) was 6.93 µM.
Take `Cc1nc2ccc(NC(=O)COc3cccc(F)c3)cc2s1`: the AC50 was 10.2 µM.
For `COc1ccc2cnn(CCOc3cc(C)ccc3C(C)C)c(=O)c2c1OC` the value was 5.9 µM; for `CCCCCCC(Cl)(Cn1ccnc1)c1ccccc1` (centres undefined), 6.48 µM.
Consider `CC(C)(C)C(=O)C(Oc1ccc(Cl)cc1)n1cncn1` (centres undefined), for which the AC50 is 4.7 µM.
For `O=C(NNC(=O)c1cc(Cl)ccc1O)c1ccc(NS(=O)(=O)c2cccs2)cc1`, the concentration at half-maximal activity (AC50) was 5.61 µM.
As to `Cc1nn2c(-c3ccncc3)nnc2c2ccccc12`, the AC50 is 7.28 µM.
Take `O=C(Nc1nnc(-c2cccs2)o1)c1cccc(Oc2ccccc2)c1`: the AC50 is 2.57 µM.
Regarding `Clc1ccccc1CN(Cc1ccco1)Cc1nnnn1C1CCCC1`, the AC50 is 5.17 µM.
On to `C=CCNc1nc(-c2ccccn2)nnc1-c1ccccc1`, for which the AC50 was 10.3 µM.
As for `CCCCCCn1c(=O)c(C(=O)Nc2ncccc2C)c(O)c2ccccc21`, the AC50 is 3.03 µM.
Regarding `Cc1ccc(CNC(=O)CSc2ccc(-c3ccccn3)nn2)cc1`, the AC50 is 4.21 µM.
Consider `Cc1cc(C(=O)N/N=C/c2ccc(O)c(O)c2O)c(C)n1-c1ccccc1`, for which the AC50 was 3.41 µM.
The figure for `O=S(=O)(CCSc1ccccn1)c1nc2ccccc2s1` is 7.49 µM; for `COc1ccc(NC(=O)/C(Cl)=C(/Cl)S(=O)(=O)Cc2ccc(C)cc2)cn1` it is 4.67 µM.
For `Cc1ccc(C(=O)Sc2cccccc2=O)cc1` the value was 0.295 µM.
Consider `COc1ccccc1N(C)S(=O)(=O)c1ccc(Cl)c(C(=O)NNC(=O)c2ccccc2O)c1`, for which the AC50 is 2.64 µM.
Consider `Cc1cccc(Oc2nc(-c3ccccn3)nc3ccccc23)c1`, for which the AC50 was 6.77 µM.
Regarding `O=C(N/N=C/c1cc(Cl)cc([N+](=O)[O-])c1O)c1ccccc1NS(=O)(=O)c1cccs1`, the AC50 was 1.04 µM.
For the compound `CC(C)(C)c1ccc(C(=O)NC(=S)NNC(=O)c2cccs2)cc1`, the half-maximal activity concentration (AC50) is 1.89 µM.
As to `c1ccc(-c2ccc(OCCCn3cncn3)cc2)cc1`, the AC50 was 5.48 µM.
Take `CCc1ccc(S(=O)(=O)N(C(=O)c2ccncc2)c2ccc(OC(=O)c3ccncc3)cc2)cc1`: the AC50 was 3.01 µM.
`CCOC(=O)c1ccc(NC(=O)CC2OCCN(CC)C2=O)cc1` (centres undefined): the AC50 is 4.89 µM.
For `CC1(C)C=Cc2c(ccc3c2OC[C@@H](c2ccc(O)cc2O)C3)O1`, the AC50 was 5.69 µM.
Regarding `Oc1c(Cl)c(Cl)c(Cl)c(Cl)c1Cl`, the AC50 was 2.89 µM.
Turning to `CCc1cc(-c2[nH]ncc2-c2ccc([N+](=O)[O-])cc2)c(O)cc1OC`, the AC50 is 6.19 µM.
The figure for `N#C/C(=C\c1cccc(Oc2ccccc2)c1)C(=O)N1CCOCC1` is 5.91 µM.
Consider `O=C(O)c1ccc(N/N=C/C2=C(N3CCOCC3)C(=C\c3ccccc3)/CC2)cc1`, for which the AC50 was 6.18 µM.
As for `O=[N+]([O-])c1cccc(C=NNc2ccc3ccccc3n2)c1O`, the AC50 is 1.69 µM.
For `Nc1c(Cl)ncnc1N/N=C/c1ccc2ccccc2n1` the value was 5.36 µM.
Turning to `CCCOc1ccc(C(=O)NNC(=S)NC(=O)CC)cc1`, the AC50 was 6.95 µM.
On to `O=c1c(CO)cc(CO)cc(CO)c1O`, for which the AC50 was 6.03 µM.
For `COc1ccc(-n2nc(C#N)c(Cl)cc2=O)cc1` the value was 7.48 µM.

Broadly, the AC50 is the concentration giving half of the maximal activity seen.
